{
  "source": "patent US6194173A",
  "about": "“Binding proteins for phosphoinositides, GRP1 or general receptor 1 for phophoinositide” (priority 1999, dated 2001)",
  "key": {"GRP": {"target": "T1, GRP (Mus musculus, UniProt O08967)", "T1 construct": "GST (N, cleaved yes); made in house; host or cells: GRP from pGEX-4T; ARF1 from baculovirus-infected Sf-9 cells", "T1 sequence (O08967 1-399)": "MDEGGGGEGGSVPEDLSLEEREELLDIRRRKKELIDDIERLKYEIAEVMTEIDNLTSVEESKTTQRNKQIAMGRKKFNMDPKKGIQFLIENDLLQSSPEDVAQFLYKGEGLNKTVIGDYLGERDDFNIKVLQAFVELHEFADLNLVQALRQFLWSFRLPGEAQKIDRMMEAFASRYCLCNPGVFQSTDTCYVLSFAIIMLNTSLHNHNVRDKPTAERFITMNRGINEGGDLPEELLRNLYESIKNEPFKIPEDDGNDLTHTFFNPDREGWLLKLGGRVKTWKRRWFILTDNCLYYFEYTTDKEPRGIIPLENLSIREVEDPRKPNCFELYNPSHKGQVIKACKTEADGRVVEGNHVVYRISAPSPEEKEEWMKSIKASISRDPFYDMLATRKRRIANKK", "test": "Effect of phosphoinositides on GRP-catalyzed ARF1 guanine nucleotide exchange", "assay_type": "biochemical", "conditions": "for stimulation of ARF1 exchange activity in the presence of GRP: 25 μM lipid, 0.15 μM GRP"}, "[1]": {"target": "T2, proteins encoded by both brain and adipocyte cDNA clones (GRP) (Mus musculus, UniProt O08967)", "T2 construct": "lack four residues", "T2 sequence (O08967 5-399)": "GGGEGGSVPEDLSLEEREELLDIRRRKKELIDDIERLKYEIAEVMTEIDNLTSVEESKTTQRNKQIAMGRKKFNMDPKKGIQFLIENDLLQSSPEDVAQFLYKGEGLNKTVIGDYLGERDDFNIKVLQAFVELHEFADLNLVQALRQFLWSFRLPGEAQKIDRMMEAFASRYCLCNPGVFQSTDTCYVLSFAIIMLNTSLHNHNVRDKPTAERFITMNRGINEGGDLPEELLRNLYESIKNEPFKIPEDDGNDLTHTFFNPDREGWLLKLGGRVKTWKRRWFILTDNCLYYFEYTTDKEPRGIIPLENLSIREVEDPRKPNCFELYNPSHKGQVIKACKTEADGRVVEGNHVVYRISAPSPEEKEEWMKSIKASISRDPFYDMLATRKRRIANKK", "test": "Binding of 32P-labeled phosphoinositides to protein of isolated cDNA clones on nitrocellulose filters (library screen)", "conditions": "library screening conditions"}, "PH domain of GRP": {"target": "T3, PH domain of GRP (Mus musculus, UniProt O08967)", "T3 sequence (O08967 239-399)": "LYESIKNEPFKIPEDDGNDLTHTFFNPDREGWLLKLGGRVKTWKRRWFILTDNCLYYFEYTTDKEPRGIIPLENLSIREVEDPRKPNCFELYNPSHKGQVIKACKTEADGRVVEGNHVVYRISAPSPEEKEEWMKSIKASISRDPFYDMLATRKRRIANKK", "test": "Competition for [3H]dioctanoyl PtdIns(3,4,5)P3 binding to the PH domain of GRP", "parameters": "GST fused to the PH region of GRP (amino acids 239-399); made in house; host or cells: bacteria", "conditions": "competition for [^3 H]dioctanoyl PtdIns(3,4,5)P3", "protocol": "Binding assays were performed as described in (Rameh, L. E. et al., J. Biol. Chem., In Press). Briefly, GST fused to the PH region of GRP (amino acids 239-399) was bound to glutathione immobilized on agarose beads (Sigma). Synthetic [^3 H]-labeled diotanoyl PtdIns(3,4,5)P3 was added, and after one hour the beads were separated from the supernatant by centrifugation. The amount of [^3 H]-PtdIns(3,4,5)P3 bound to the PH domain was calculated by subtracting the amount of free [^3 H] present in supernatants from GST-GRP from the amount of free [^3 H] in supernatants from control GST. The data was fitted to the equation [bound]=Bmax×[free]/(KD + [free]) by least squares curve fit. For the competition assays the beads containing the GST-fusion proteins were incubated with 2.5 μM[^3 H]-labeled dioctanoyl PtdIns(3,4,5)P3 bound was calculated based on the amount of [^3 H] bound to the beads in the absence of competitor. The total [^3 H] bound to the GST control was less then 0.5% of the total [^3 H] bound to GRP PH domain. The data was fitted to the equation % bound=100-n×L/Klapp +L) where n is the % specific binding, L is the concentration of unlabeled lipid added and Klapp is the apparent competitive dissociation constant. The rations of the apparent dissociation constants accurately reflect the ratios of the true dissociation constants under the present experimental conditions (Rameh, L. E. et al., J. Biol. Chem., In Press).\nThe data depicted in FIG. 8 indicate that receptor signaling through PI3-kinases, which generates PtdIns(3,4,5)P3, may specifically regulate ARF proteins through GRP. In order to further test this, the relative binding affinities of PtdIns(3,4,5)P3 versus PtdIns (4,5)P2, which is constitutively present in cell membranes, for the PH domain of GRP were determined. A GST fusion protein of the PH domain of GRP was incubated with various concentrations of synthetic [^3 H]dioctanoyl PtdIns(3,4,5)P3 and binding was determined (FIG. 9A). These experiments show high affinity binding of this polyphosphoinositide,with a calculated Kd=0.5 μM."}, "GRP Sec7 homology domain": {"system": "GRP Sec7 homology domain", "test": "Effect of phosphoinositides on ARF1 exchange catalyzed by the GRP Sec7 domain", "assay_type": "biochemical, mouse", "conditions": "25 μM PtdIns(3,4,5)P3"}},
  "note": "Entries after “also recorded” stand apart in the source; their conditions may differ.",
  "data": [
    {"substance": "Phosphatidylinositol (3,4,5)-Trisphosphate [PtdIns(3,4,5)P3]", "values": [
      {"measurement": "maximal activation of GRP-catalyzed ARF1 exchange", "setting": "GRP; 0.1 μM GRP1, 40 minutes", "result": "3-4 fold"},
      {"measurement": "EC50", "setting": "GRP; 0.1 μM GRP1, 40 minutes, read-out: half maximal stimulation of GRP-catalyzed ARF1 [^35 S]GTPγS binding", "result": "~1000", "unit": "nM"},
      {"measurement": "stimulation of ARF1 exchange activity in the presence of GRP", "setting": "GRP; 0.05% cholate and 0.05% CHAPS (low negative charge)", "result": "selectively stimulated; also recorded: Selectivity"},
      {"measurement": "stimulation of ARF1 exchange activity in the presence of GRP", "setting": "GRP; 0.1% cholate (high negative charge)", "result": "stimulated"},
      {"measurement": "binding of labeled phosphoinositide to the cDNA clone protein", "setting": "[1]", "result": "bound"},
      {"measurement": "KI(app), fold lower than for PtdIns(4,5)P2", "setting": "PH domain of GRP", "result": "10-20 fold"},
      {"measurement": "effect on ARF exchange activity catalyzed by the GRP Sec7 homology domain", "setting": "GRP Sec7 homology domain", "result": "no effect"}
    ]}
  ]
}
